Results from patent publication US11259522B2, “Control of resistant pests” (priority 2017, dated 2022).
In brackets after ≈: the same amount, converted by molar mass. Several values for one entry are separate records, joined by “and”; a condition that tells them apart may be missing. Equal values may be shown once. Read-outs that look alike come from different tables or passages of the source.

Tests used:
[1] = test system: Rhyzopertha dominica susceptible strain QRD14; test: Grain protectant bioassay on treated wheat, susceptible lesser grain borer; assay type: in vivo; conditions: for 14 day Adult Mortality No. dead/total / F1 Progeny count No. dead/total: Example 8, QQRD14, replicates A, B, C; for Progeny reduction (%): vs untreated control
Text: The experiment of Example 5 was repeated using a laboratory reared susceptible strain QQRD14 of R. dominica and different concentrations of flavesone to determine efficacy.

[2] = test system: Aedes aegypti Liverpool strain (insecticide susceptible, LVP) L3 larvae; test: Mosquito larval dose response assay, LVP strain; conditions: read-out: Lethal Concentration (LC50) LVP Strain
[3] = test system: Oryzaephilus surinamensis strain QOS302 (resistant to fenitrothion & chlorpyrifos-methyl); test: Grain protectant bioassay on treated wheat, O. surinamensis resistant; assay type: in vivo; conditions: for Progeny reduction (%): vs untreated control
[4] = test system: Rhyzopertha dominica strain QRD1440 (resistant to OP protectants and pyrethroids); test: Grain protectant bioassay on treated wheat, resistant lesser grain borer; conditions: for Live adult progeny: mean ± SE; for Progeny reduction (%): vs untreated control
[5] = test system: Rhipicephalus microplus larvae, susceptible non-resistant field strain (NRFS); test: Larval packet test (LPT), cattle tick larvae, susceptible strain; assay type: in vivo; conditions: for LC50 (ppm) / LC99 (ppm): NRFS, Probit analysis; for mortality at 10000 ppm: 10,000 ppm; for mortality at 2.5 ppm: 2.500 ppm; for mortality at 5000 ppm: 5,000 ppm
Procedure: The larval packet test (LPT) is a modification of that first described by Stone and Haydock (1962, Bull. Entomol. Res., 563-578, http://dx.doi.org/10.1017/5000748530004832X) for evaluation of field resistance in cattle tick (Rhipicephalus microplus) larvae.
The first LPT assay was conducted to identify the potential range of flavesone acaricidal activity against larvae of a susceptible non-resistant field strain (NRFS) of R. microplus as a reference strain using a wide range of concentrations (1 in 10 in series).
The test compound, flavesone, 6-isobutyryl-2,2,4,4-tetramethylcyclohexane-1,3,5-trione, 96.7%, was used. As its volatility/evaporative properties were unknown, the LPT method was modified to incorporate the use of suitably-sized polyethylene plastic sheets to envelop the larval packets, minimizing exposure of the test active to the atmosphere.
In addition, the use of the solvent trichloroethylene (TCE) was removed to avoid the time required for evaporation in the preparation of test papers. The test solutions were prepared in olive oil only at the diluent and the papers immediately enveloped in the plastic sheets and sealed with bulldog clips to minimize evaporation.
A stock solution with a concentration of 100,000 ppm (10%) flavesone was prepared in olive oil as the diluent (1.035 mL flavesone (96.7%) to 8.965 mL olive oil) and then further diluted 1 in 10 in series to also give 10,000 ppm, 1,000 ppm, 100 ppm, 10 ppm and 1 ppm concentration. The negative control was olive oil only. No positive control was included in this experiment. Due to the viscosity of the olive oil, all solutions were prepared using reverse pipetting technique.
Filter papers (75 mm×85 mm Whatman® No. 541), with grid patterns, were impregnated on ½ of the paper with 225 μL of each solution using a micro-pipette and immediately folded in half, enveloped in polyethylene plastic and sealed with 3 bulldog clips. The impregnated papers were kept at room temperature on aluminium trays for a minimum of 60 minutes to allow for dispersal across the grid pattern of the paper prior to aliquoting of larvae. The packets were prepared in duplicate for each concentration, including the negative control.
An 8 dram vial containing approximately 20,000 hatched 7-21 day old NRFS larvae (about 1 g eggs) was opened and set up on a moated tray with a small amount of detergenated water, about 15 to 30 minute before use. Only larvae that migrated to the top of the vial were used in the assay.
Aliquots of approximately 100 larvae were placed into each packet using plastic disposable forceps and the packets resealed and incubated and 27° C. and 85% relative humidity (RH).
After 24 hours, the larval packets were opened and the numbers of dead and live larvae were counted under a magnification lamp. Percentage mortality was calculated and, where applicable, corrected using Abbott's Formula (Abbott, 1925, J. Economic Entomology, 18:256-257): […]
LC50 and LC99 values were determined by Probit mortality vs log concentration analysis. Probit values were derived from “Transformation of Percentages to Probit's Tables” published by Fisher R. A. and Yates F. (1938).
The LPT Assay of Example 1 was repeated using a narrow range of concentrations, 1 in 2 series, of flavesone to determine LC50 and LC99 values against the susceptible NRFS and the multi-resistant Tiaro reference strain.
The stock solution of flavesone (100,000 ppm) was diluted 1 in 10 with olive oil (1 mL to 9 mL diluent) to give 10,000 ppm, which was then further diluted 1 in 2 in series (5 mL to 5 mL diluent) to give 5,000 ppm, 2,500 ppm, 1,250 ppm, 625 ppm, 312.5 ppm and 156.25 ppm concentrations. […]

[6] = Example 6, QRD1440, 25 ppm on wheat, replicates A, B, C
[7] = Example 6, QRD1440, 50 ppm on wheat, replicates A, B, C
[8] = Example 6, QRD1440, 75 ppm on wheat, replicates A, B, C
[9] = Example 7, QRD1440, 60 ppm on wheat, replicates A, B, C
[10] = Rhyzopertha dominica, in Triticum aestivum, 336 h, read-out: Adult mortality (%)
[11] = Rhipicephalus microplus, 24 h, Example 2
[12] = Rhipicephalus microplus, 24 h, Example 3
[13] = Rhipicephalus microplus, 48 h, Example 4

For `CC(C)C(=O)C1C(=O)C(C)(C)C(=O)C(C)(C)C1=O` [Flavesone, 1-isobutyroyl-3,3,5,5-tetramethylcyclohexane-2,4,6-trione], the “14 day Adult Mortality No. dead/total” value ([1]; 5 ppm on wheat) was 0/50, the “F1 Progeny count No. dead/total” value ([1]; 5 ppm on wheat) was 4/930 and 4/999 and 1/866 and the “14 day Adult Mortality No. dead/total” value ([1]; 10 ppm on wheat) was 6/50 (2×) and 8/50. For the same compound, the “F1 Progeny count No. dead/total” value ([1]; 10 ppm on wheat) was 3/446 and 0/444 and 3/487, the “14 day Adult Mortality No. dead/total” value ([1]; 25 ppm on wheat) was 50/50 and the “F1 Progeny count No. dead/total” value ([1]; 25 ppm on wheat) was 0/0. For the same compound, the “14 day Adult Mortality No. dead/total” value ([1]; 50 ppm on wheat) was 50/50, the “F1 Progeny count No. dead/total” value ([1]; 50 ppm on wheat) was 0/0 and the “14 day Adult Mortality No. dead/total” value ([1]; 100 ppm on wheat) was 50/50. The “F1 Progeny count No. dead/total” value ([1]; 100 ppm on wheat) was 0/0, the Live adult progeny ([1]; QRD14, 25 mg/kg, mean ± SE) was 0.0 ± 0.0 and the “Progeny reduction (%)” value ([1]; QRD14, 25 mg/kg) was 100%. For the same compound, the Live adult progeny ([1]; QRD14, 60 mg/kg, mean ± SE) was 0.0 ± 0.0, the “Progeny reduction (%)” value ([1]; QRD14, 60 mg/kg) was 100% and the mortality at 25 mg/kg ([1]; Rhyzopertha dominica, 336 h, QRD14, 25 mg/kg, 2 weeks, mean ± SE, read-out: Adult mortality (%)) was 98 ± 1.2%. The mortality at 60 mg/kg ([1]; Rhyzopertha dominica, 336 h, QRD14, 60 mg/kg, 2 weeks, mean ± SE, read-out: Adult mortality (%)) was 100%, the LC50 ([2]; 24 h) was 40.9 µg/mL (≈ 162 µM) and the LC50 ([2]; 48 h) was 40.5 µg/mL (≈ 161 µM). The LC50 ([2]; 72 h) was 39.7 µg/mL (≈ 157 µM), the Live adult progeny ([3]; 25 mg/kg, mean ± SE) was 160.3 ± 15.7 and the “Progeny reduction (%)” value ([3]; 25 mg/kg) was 61.2%. For the same compound, the “Adult mortality (%)” value ([3]; 60 mg/kg, 2 weeks, mean ± SE) was 14.7 ± 8.7%, the Live adult progeny ([3]; 60 mg/kg, mean ± SE) was 0.0 ± 0.0 and the “Progeny reduction (%)” value ([3]; 60 mg/kg) was 100%. For the same compound, the mortality at 25 mg/kg ([3]; Oryzaephilus surinamensis, 336 h, 25 mg/kg, 2 weeks, mean ± SE, read-out: Adult mortality (%)) was 0.7%, the mortality at 60 mg/kg ([3]; Oryzaephilus surinamensis, 336 h, 60 mg/kg, 2 weeks, mean ± SE, read-out: Adult mortality (%)) was 14% and the “F1 Progeny count No. dead/total” value ([4]; Example 5, QRD1440, 25 ppm on wheat, further 6 weeks, replicates A, B, C) was 0/37 and 0/62 and 0/90. For the same compound, the “14 Day adult mortality No. dead (total)” value ([4]; Example 5, QRD1440, 25 ppm on wheat, replicates A, B, C) was 19/50 and 11/50 and 14/50, the “14 day Adult Mortality No. dead/total” value [4, 6] was 22/50 and 21/50 and 30/50 and the “F1 Progeny count No. dead/total” value [4, 6] was 0/20 (2×) and 0/5. The “14 day Adult Mortality No. dead/total” value [4, 7] was 47/50 (2×) and 49/50, the “F1 Progeny count No. dead/total” value [4, 7] was 0/0 and the “14 day Adult Mortality No. dead/total” value [4, 8] was 50/50. For the same compound, the “F1 Progeny count No. dead/total” value [4, 8] was 0/0, the “14 day Adult Mortality No. dead/total” value [4, 9] was 50/50 and the “F1 Progeny count No. dead/total” value [4, 9] was 0/0. The Live adult progeny ([4]; QRD1440, 25 mg/kg) was 23.7 ± 9.0, the “Progeny reduction (%)” value ([4]; QRD1440, 25 mg/kg) was 88.8% and the “Progeny reduction (%)” value ([4]; QRD1440, 25 mg/kg, listed as flavesone) was 88%. For the same compound, the Live adult progeny ([4]; QRD1440, 60 mg/kg) was 0.0 ± 0.0, the “Progeny reduction (%)” value ([4]; QRD1440, 60 mg/kg) was 100% and the mortality at 25 mg/kg [4, 10] was 56.7 ± 4.1%. For the same compound, the mortality at 60 mg/kg [4, 10] was 100%, the “LC50 (ppm)” value ([5]; Example 1, 24 hours) was 171 ppm and the “LC99 (ppm)” value ([5]; Example 1, 24 hours) was 3346 ppm. The “LC50 (ppm)” value ([5]; Example 2, 24 hours) was 690 ppm, the “LC99 (ppm)” value ([5]; Example 2, 24 hours) was 1109 ppm and the “LC50 (ppm)” value ([5]; Example 3, 24 hours) was 610 ppm. The “LC99 (ppm)” value ([5]; Example 3, 24 hours) was 1050 ppm, the “LC50 (ppm)” value ([5]; Example 4, 48 hours) was 526 ppm and the “LC99 (ppm)” value ([5]; Example 4, 48 hours) was 923 ppm. The mortality at 1 ppm ([5]; Rhipicephalus microplus, 24 h, Example 1, 1 ppm) was 0%, the mortality at 10 ppm ([5]; Rhipicephalus microplus, 24 h, Example 1, 10 ppm) was 0.62% and the mortality at 100 ppm ([5]; Rhipicephalus microplus, 24 h, Example 1, 100 ppm) was 1.82%. The mortality at 1000 ppm ([5]; Rhipicephalus microplus, 24 h, Example 1, 1,000 ppm) was 97%, the mortality at 10000 ppm ([5]; Rhipicephalus microplus, 24 h, Example 1) was 100% and the mortality at 100000 ppm ([5]; Rhipicephalus microplus, 24 h, Example 1, 100,000 ppm) was 100%. For the same compound, the mortality at 2.5 ppm [5, 11] was 100%, the mortality at 156.25 ppm ([5]; Rhipicephalus microplus, 24 h, Example 2, 156.25 ppm) was 0% and the mortality at 312.5 ppm [5, 11] was 0%. For the same compound, the mortality at 625 ppm [5, 11] was 11.8%, the mortality at 1250 ppm ([5]; Rhipicephalus microplus, 24 h, Example 2, 1,250 ppm) was 100% and the mortality at 5000 ppm [5, 11] was 100%. It also gave a mortality at 10000 ppm [5, 11] of 100%, a mortality at 2.5 ppm [5, 12] of 100% and a mortality at 312.5 ppm [5, 12] of 1.28%. The mortality at 625 ppm [5, 12] was 11.8%, the mortality at 1250 ppm ([5]; Rhipicephalus microplus, 24 h, Example 3, 1,250 ppm) was 100% and the mortality at 5000 ppm [5, 12] was 100%. The mortality at 312.5 ppm [5, 13] was 2.17%, the mortality at 625 ppm [5, 13] was 66.8% and the mortality at 1250 ppm ([5]; Rhipicephalus microplus, 48 h, Example 4, 1250 ppm) was 100%.
